# US12441687B2, “Drp1-filamin complex formation inhibitors” (RDISCOVERY, LLC, priority 2019, dated 2025)
# What was measured:
# calcium channel = experiment: Calcium channel blocking: intracellular calcium increase after potassium chloride stimulation in Neuro-2a cells (Fura 2-AM); assay type: cell-based, murine
# Method: Effect of blocking the calcium channel by the cilnidipine derivative, synthesized in Exemplary Experiment 7, was examined. More specifically, first, Neuro-2a cells which belong to a cell line of murine neuroblastoma were cultured in serum-free culture media, and Fura 2-AM (from Dojindo Laboratories) as a calcium ion probe was added to the culture media, so as to transduce it into the cells.
# The culture media were then replaced with HEPES buffered nutrient solution (pH7.4), and each of cilnidipine, and the individual compounds namely NS4-019, NS4-021, NS4-043, NS4-238, and NS4-700, synthesized in Exemplary Experiment 7, was added to the culture media so as to adjust the final concentrations to 0, 1, 10, 100, and 1,000 nM, and the culture media were incubated for 30 minutes.
# Depolarizing stimulation was then given by adding potassium chloride solution (to a final concentration of 60 mM), and inflow of calcium ions into the cells was observed under a fluorescent microscope.
# FIG. 12 is a graph that illustrates increase of intracellular calcium ion concentration after potassium chloride stimulation. In FIG. 12, “CIL” represents results obtained from the cells having cilnidipine added thereto, “NS4-238” represents results obtained from the cells having NS4-238 added thereto, and “**” represents presence of significant difference at p<0.01. […]
# [1] = test system: model mice of inflammatory bowel disease (DSS); experiment: Survival of DSS-induced inflammatory bowel disease model mice; assay type: in vivo; settings: osmotic pump 25,000 μg/kg, 17 days, 3% DSS, FIG. 5(b)
# Method: Effects of cilnidipine on intractable disease were examined. In this Exemplary Experiment, cilnidipine was administered to model mice of inflammatory bowel disease, and survival rate was examined. The model mice of inflammatory bowel disease employed were mice on which inflammatory bowel disease is inducible by administrating dextran sulfate (DSS).
# FIG. 5(a) is a drawing that illustrates an experiment schedule. From three days before the administrating DSS started, an osmotic pump containing 25,000 μg/kg of cilnidipine was intraperitoneally implanted into each mouse, the drug was administered continuously over 17 days, and the survival rate was measured.
# From the first day (Day 0) the cilnidipine administration started, the mice were fed tap water containing 3% DSS as a drinking water for seven days. Over a period between Day 7 after the start of cilnidipine administration to Day 14, the drinking water was reverted to ordinary tap water. Also a control group was prepared, in which the mice were fed a solvent only in place of cilnidipine.
# Drp1-filamin complex = Drp1-filamin complex (Homo sapiens, UniProt O00429+P21333); settings: Non Patent Literature 1; cited from earlier work
# Chain of Drp1-filamin complex (O00429 whole entry): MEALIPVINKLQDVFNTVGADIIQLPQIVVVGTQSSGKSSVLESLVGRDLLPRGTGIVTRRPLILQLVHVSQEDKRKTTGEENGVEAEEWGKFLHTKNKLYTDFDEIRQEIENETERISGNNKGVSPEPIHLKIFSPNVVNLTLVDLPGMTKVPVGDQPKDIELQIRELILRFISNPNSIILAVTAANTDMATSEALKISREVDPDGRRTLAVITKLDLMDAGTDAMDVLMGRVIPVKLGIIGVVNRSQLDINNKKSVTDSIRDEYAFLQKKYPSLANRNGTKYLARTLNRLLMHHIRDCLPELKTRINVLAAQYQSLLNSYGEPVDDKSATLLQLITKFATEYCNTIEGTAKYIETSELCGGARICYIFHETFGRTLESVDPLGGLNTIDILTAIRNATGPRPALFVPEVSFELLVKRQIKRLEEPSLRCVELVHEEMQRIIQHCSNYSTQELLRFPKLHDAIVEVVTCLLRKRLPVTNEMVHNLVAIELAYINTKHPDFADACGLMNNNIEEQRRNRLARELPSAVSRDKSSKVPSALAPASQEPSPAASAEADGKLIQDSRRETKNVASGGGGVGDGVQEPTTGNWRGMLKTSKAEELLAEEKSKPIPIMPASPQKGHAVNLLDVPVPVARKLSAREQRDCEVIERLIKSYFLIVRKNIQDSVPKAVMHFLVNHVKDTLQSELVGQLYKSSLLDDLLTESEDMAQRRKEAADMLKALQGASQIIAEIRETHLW
# Chain of Drp1-filamin complex (P21333 whole entry): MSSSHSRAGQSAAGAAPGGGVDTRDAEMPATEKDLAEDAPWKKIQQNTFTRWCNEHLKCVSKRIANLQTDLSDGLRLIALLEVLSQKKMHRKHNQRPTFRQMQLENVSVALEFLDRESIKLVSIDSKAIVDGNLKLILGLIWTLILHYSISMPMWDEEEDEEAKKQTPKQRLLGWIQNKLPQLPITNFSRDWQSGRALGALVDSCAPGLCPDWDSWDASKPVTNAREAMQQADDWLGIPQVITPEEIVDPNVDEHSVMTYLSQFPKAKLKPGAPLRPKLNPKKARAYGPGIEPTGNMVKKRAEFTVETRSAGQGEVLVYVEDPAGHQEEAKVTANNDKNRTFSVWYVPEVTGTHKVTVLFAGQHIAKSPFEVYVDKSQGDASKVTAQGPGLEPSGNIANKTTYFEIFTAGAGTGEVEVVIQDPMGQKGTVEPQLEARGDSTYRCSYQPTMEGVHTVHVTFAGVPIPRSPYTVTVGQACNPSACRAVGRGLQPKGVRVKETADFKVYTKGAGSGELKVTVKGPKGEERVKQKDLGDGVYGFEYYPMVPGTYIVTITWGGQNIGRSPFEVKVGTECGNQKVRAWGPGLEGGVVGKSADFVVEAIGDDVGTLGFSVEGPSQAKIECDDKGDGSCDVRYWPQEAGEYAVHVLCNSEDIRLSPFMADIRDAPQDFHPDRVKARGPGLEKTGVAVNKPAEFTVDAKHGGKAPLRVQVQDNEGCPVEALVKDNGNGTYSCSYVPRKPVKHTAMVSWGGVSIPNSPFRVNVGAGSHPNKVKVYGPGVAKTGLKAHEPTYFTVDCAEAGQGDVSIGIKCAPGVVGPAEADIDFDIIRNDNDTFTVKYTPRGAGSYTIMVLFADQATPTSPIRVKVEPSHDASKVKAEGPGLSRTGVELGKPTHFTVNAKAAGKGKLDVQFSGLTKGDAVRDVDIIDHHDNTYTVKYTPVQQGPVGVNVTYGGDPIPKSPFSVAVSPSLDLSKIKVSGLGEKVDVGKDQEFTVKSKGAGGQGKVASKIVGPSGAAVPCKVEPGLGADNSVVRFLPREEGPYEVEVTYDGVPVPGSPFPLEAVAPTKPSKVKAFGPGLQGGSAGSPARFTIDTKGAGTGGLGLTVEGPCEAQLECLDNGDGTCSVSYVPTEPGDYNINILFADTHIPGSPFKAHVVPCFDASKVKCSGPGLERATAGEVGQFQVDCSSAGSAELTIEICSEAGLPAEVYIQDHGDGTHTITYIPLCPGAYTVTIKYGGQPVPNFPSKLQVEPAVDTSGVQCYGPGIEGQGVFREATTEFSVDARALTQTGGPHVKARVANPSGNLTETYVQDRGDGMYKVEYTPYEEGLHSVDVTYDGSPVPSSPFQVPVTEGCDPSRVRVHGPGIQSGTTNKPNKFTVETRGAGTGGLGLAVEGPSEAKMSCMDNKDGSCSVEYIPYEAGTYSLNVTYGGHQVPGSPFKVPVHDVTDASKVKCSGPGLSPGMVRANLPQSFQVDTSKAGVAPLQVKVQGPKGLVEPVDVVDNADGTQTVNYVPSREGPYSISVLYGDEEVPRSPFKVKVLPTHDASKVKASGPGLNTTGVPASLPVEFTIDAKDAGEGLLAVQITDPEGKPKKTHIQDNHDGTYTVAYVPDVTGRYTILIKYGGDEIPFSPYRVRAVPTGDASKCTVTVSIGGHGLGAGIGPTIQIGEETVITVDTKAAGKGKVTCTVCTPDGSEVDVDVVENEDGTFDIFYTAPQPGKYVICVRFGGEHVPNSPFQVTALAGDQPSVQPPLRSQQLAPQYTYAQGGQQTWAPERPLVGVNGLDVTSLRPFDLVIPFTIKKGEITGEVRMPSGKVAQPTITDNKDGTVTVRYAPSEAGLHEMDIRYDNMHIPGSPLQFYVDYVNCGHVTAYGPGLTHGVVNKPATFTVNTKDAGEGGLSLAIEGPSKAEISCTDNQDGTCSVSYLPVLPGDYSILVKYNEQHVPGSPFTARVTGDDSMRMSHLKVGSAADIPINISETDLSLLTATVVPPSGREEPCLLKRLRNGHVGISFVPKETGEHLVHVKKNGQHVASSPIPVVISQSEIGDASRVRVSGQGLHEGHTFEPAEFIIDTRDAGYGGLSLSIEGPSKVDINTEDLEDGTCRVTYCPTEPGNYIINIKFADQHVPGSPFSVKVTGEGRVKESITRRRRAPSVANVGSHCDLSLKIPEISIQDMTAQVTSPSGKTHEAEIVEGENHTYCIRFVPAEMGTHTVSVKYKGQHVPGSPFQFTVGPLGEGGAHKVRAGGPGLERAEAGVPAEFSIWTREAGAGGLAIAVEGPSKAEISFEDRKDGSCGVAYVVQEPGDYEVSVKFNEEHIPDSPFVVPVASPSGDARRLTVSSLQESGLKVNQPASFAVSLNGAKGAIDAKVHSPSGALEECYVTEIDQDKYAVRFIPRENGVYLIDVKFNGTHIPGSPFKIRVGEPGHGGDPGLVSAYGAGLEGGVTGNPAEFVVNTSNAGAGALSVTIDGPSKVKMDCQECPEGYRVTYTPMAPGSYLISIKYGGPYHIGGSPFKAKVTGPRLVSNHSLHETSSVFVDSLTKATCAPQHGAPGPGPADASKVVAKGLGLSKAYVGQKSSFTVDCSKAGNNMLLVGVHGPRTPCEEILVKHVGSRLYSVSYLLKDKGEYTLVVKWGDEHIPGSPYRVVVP
# [2] = test system: hypertensive and hyperglycemic patients; experiment: Retrospective analysis of blood HbA1c in hypertensive and hyperglycemic patients; assay type: in vivo, human; settings: patients administered cilnidipine compared with patients administered amlodipine, FIG. 7
# Method: Effects of cilnidipine on intractable disease were examined. The results shown in this Exemplary Experiment were obtained from retrospective analyses on patients in Kyushu University Hospital. In this Exemplary Experiment, percentages of blood HbA1c in hypertensive and hyperglycemic patients administered amlodipine, and in hypertensive and hyperglycemic patients administered cilnidipine, were evaluated.
# [3] = test system: myocardial cells from neonatal rat; experiment: Aging of myocardial cell (p53 accumulation) under hypoxic-reoxygenation stimulation; assay type: cell-based; settings: Exemplary Experiment 10, 1 μM, hypoxic (1%) 18 hours then normoxic (21%) 18 hours, FIG. 10
# Method: How the cilnidipine derivatives, synthesized in Exemplary Experiment 7, can affect aging of myocardial cell was examined. Aging of myocardial cell was evaluated on the basis of accumulation of p53 protein. More specifically, each of cilnidipine, and the individual compounds namely NS4-019, NS4-021 and NS4-043, synthesized in Exemplary Experiment 7, was added to a culture medium of the myocardial cells from neonatal rat, so as to adjust the final concentration to 1 μM, and the cells were incubated for one hour. The cells were then subjected to hypoxic-reoxygenation stimulation, by cultivation under hypoxic (1%) environment for 18 hours, followed by cultivation under normoxic (21%) environment for 18 hours. The cells in each culture were then fixed with 4% paraformaldehyde, and immunostained with anti-p53 antibody and anti-α-actinin antibody. α-Actinin is a marker of myocardial cell. The cells in each culture were observed under a fluorescent microscope, and percentage of p53 accumulating cells relative to the α-actinin-positive cells was determined.
# [4] = test system: SOD1-G93A mice (ALS model); experiment: Survival of ALS model mice (SOD1-G93A) with cilnidipine administration; assay type: in vivo; settings: osmotic pump 5,000 μg/kg intraperitoneally implanted after onset of ALS, 28 days, FIG. 4(b)
# Method: Effects of cilnidipine on intractable disease were examined. In this Exemplary Experiment, cilnidipine was administered to model mice of amyotrophic lateral sclerosis (ALS), and survival rate was examined. The ALS model mice employed were SOD1-G93A mice.
# FIG. 4(a) is a drawing that illustrates an experiment schedule. An osmotic pump containing 5,000 μg/kg of cilnidipine was intraperitoneally implanted into each model mouse after onset of ALS, the drug was administered continuously over 28 days, and the survival rate was measured.
# [5] = test system: H9c2 cell overexpressing A1545T mutant of filamin A gene fused with mCherry tag; experiment: Mitochondrial division promoted by overexpressed A1545T mutant of filamin A in H9c2 cells; assay type: cell-based, murine; settings: Exemplary Experiment 9, 1 μM, 24 hours, FIG. 9(b)
# From the text: A disease called filamin cardiomyopathy has been known to involve A1539T mutation (substitution of adenine at position 1539 to thymine) on filamin-C gene. Then influence of A1545T mutant of filamin A gene, similar to A1539T mutant of filamin-C gene, on the shape of mitochondria of myocardial cell was examined.
# (§1) An expression vector of wild type filamin A gene fused with mCherry tag, or, an expression vector of A1545T mutant of filamin A gene fused with mCherry tag was transduced into H9c2 cell, which is a murine heart striated muscle cell line, and allowed to overexpress. Also a group, having an expression vector of mCherry transduced and allowed to overexpress therein, was prepared for comparison.
# (§2) The cells were cultured for 24 hours, cilnidipine or NS4-238 was added to the culture medium while adjusting the final concentration to 1 μM, and the cells were further cultured for 24 hours. Also a group having DMSO added thereto in place of the drugs was prepared for comparison.
# (§3) The cells were then stained in the same way as described in Exemplary Experiment 1 using MitoTracker Green FM (from Thermo Fischer Scientific Inc.). The cells were observed under a fluorescent microscope, and the shape of mitochondria was quantified by image analysis.
# [6] = test system: myocardial cells from the neonatal rat; experiment: Evaluation of degree of mitochondrial division under hypoxia (MitoTracker Green FM, image analysis); assay type: cell-based
# Method: A system for quantitatively evaluating degree of intracellular mitochondrial division was built. More specifically, myocardial cells obtained from a neonatal rat were cultured under normoxia (20%) or under hypoxia (1%) for 16 hours. The cells were then stained with a fluorescent dye (MitoTracker Green FM, from Thermo Fisher Scientific Inc.) that selectively stains mitochondria. The cells were observed under a fluorescent microscope, and the shape of mitochondria was quantified by image analysis.
# FIG. 2(c) is a graph that illustrates length of mitochondria from the myocardial cells of a neonatal rat cultured under normoxia or hypoxia. In FIG. 2(c), “Normoxia” represents results obtained from culture under the normal oxygen concentration, and “Hypoxia” represents results obtained from culture under the low oxygen concentration. […]
# Each of the aforementioned compounds was added to a culture medium of the myocardial cells from the neonatal rat, so as to adjust the final concentration to 1 μM, the cells were incubated for one hour, and further cultured under hypoxic environment for 16 hours. The cells were then stained in the same way as described in Exemplary Experiment 1 using MitoTracker Green FM (from Thermo Fischer Scientific Inc.), observed under a fluorescent microscope, and the shape of mitochondria was quantified. […]
# [7] = test system: H9c2 cell overexpressing wild type filamin A gene fused with mCherry tag; experiment: Mitochondrial division promoted by overexpressed wild type filamin A in H9c2 cells; assay type: cell-based, murine; settings: Exemplary Experiment 9, 1 μM, 24 hours, FIG. 9(b)
# Method: as §1, §2, §3
# [8] = test system: model mice of type 1/2 diabetes (STZ); experiment: Blood sugar level in streptozotocin model mice of type 1/2 diabetes; assay type: in vivo; settings: STZ 200 mg/kg mice, osmotic pump 5,000 μg/kg from 14th day, FIG. 6
# Method: Effects of cilnidipine on intractable disease were examined. In this Exemplary Experiment, cilnidipine was administered to model mice of type 1/2 diabetes, and the blood sugar level was measured over time. The model mice of type 1/2 diabetes employed were mice intraperitoneally administered 200 mg/kg of streptozotocin (STZ) on the 42nd day after birth. Also mouse without streptozotocin administration were prepared for comparison.
# Blood sugar levels of mice in the individual groups were measured over time after the start of experiment. On the 14th day after the start of experiment, an osmotic pump containing 5,000 μg/kg of cilnidipine or the solvent only was implanted into each mouse in each group, for prolonged administration.
smiles,measurement,setting,value
COCCOC(=O)C1=C(C)NC(C)=C(C(=O)OC/C=C/c2ccccc2)C1c1cccc([N+](=O)[O-])c1 (stereo not drawn) [cilnidipine],"blocking effect on the calcium channel (ΔRatio, increase of intracellular calcium ion concentration)","calcium channel; Exemplary Experiment 12, 0, 1, 10, 100, and 1,000 nM, 30 minutes, 60 mM potassium chloride, FIG. 12",showed blocking effects exerted on the calcium channel
same,blocking effect on the calcium channel (ΔRatio),"calcium channel; Exemplary Experiment 15, at 1000 nM, FIG. 15",showed blocking effects on the calcium channel
same,survival rate,[1],significant increase of the survival rate
same,inhibition of formation of the Drp1-filamin complex,Drp1-filamin complex,inhibits formation of the Drp1-filamin complex
same,percentage of blood HbA1c,[2],significant decrease of HbA1c
same,percentage of p53 accumulating cells relative to α-actinin-positive cells (aging of myocardial cell),[3],suppressive effects over aging of myocardial cell
same,survival rate,[4],significant elongation of lifetime
same,average length of mitochondrial fragments (suppression of mitochondrial division),[5],could not suppress mitochondrial division
same,percentage of cells having vesicular mitochondria (suppression of mitochondrial division),"[6]; Exemplary Experiment 2, 1 μM, hypoxic environment 16 hours, FIG. 3",significantly suppress mitochondrial division
same,percentage of cells having vesicular mitochondria (suppression of mitochondrial division),"[6]; Exemplary Experiment 11, 1 μM, hypoxic environment 18 hours, FIG. 11",significantly suppress mitochondrial division
same,average length of mitochondrial fragments (suppression of mitochondrial division),[7],could not suppress mitochondrial division
same,blood sugar level,[8],blood sugar level getting closer to the normal level
